Reference: ChEMBL document CHEMBL1141723, “Specific targeting of metzincin family members with small-molecule inhibitors: progress toward a multifarious challenge” (Bioorg Med Chem, 2008)
Activity calls are given as the source filed them. The calls are words filed in the database; no cut-off is given here.

Assays:
Collagenase 3 [1] = biological target: T1, Collagenase 3 (Homo sapiens, UniProt P45452); experiment: Inhibition of MMP13 at 10 ug/mL
[2] = Inhibition of aggrecanase at 1 uM
[3] = biological target: T2, Matrix metalloproteinase-9 (Homo sapiens, UniProt P14780); experiment: Inhibition of MMP9
T2 sequence (P14780 whole entry): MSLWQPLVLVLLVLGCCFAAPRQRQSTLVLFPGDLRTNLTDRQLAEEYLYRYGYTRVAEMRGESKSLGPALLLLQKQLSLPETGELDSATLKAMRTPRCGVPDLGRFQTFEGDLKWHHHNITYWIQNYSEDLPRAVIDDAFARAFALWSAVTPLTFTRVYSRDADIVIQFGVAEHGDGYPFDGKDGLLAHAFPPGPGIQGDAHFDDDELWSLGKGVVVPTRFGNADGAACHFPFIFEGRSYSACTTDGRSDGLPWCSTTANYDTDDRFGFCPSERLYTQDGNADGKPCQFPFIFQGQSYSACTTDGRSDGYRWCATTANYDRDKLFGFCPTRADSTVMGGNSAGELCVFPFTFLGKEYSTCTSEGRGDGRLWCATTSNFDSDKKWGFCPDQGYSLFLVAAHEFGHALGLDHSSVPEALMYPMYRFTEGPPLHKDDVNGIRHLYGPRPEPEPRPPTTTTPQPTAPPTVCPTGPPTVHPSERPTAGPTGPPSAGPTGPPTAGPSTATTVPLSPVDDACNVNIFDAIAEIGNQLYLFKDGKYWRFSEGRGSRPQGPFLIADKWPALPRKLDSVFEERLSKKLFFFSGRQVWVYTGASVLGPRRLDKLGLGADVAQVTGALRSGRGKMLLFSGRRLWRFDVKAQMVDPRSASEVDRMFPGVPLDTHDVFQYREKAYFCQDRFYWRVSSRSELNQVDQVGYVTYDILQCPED

[4] = biological target: T3, Matrix metalloproteinase-14 (Homo sapiens, UniProt P50281); experiment: Inhibition of MMP14
[5] = biological target: T4, Interstitial collagenase (Homo sapiens) (UniProt P03956); experiment: Inhibition of MMP1 up to 60 uM
T4 sequence (whole entry): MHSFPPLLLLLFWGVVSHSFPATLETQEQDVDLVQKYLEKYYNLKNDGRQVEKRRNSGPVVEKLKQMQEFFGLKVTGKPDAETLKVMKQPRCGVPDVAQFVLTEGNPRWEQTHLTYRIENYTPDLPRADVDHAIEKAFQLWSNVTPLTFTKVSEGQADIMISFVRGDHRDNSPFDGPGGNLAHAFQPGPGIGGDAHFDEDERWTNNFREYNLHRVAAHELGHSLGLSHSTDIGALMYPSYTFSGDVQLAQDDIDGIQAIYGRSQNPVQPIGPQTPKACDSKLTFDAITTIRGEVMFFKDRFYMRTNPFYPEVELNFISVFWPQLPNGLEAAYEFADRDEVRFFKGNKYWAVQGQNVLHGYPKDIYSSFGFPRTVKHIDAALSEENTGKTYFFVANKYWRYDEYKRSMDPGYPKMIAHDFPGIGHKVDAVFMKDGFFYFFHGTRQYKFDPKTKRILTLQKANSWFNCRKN

[6] = biological target: T5, Matrilysin (Homo sapiens) (UniProt P09237); experiment: Inhibition of MMP7 up to 60 uM
T5 sequence (whole entry): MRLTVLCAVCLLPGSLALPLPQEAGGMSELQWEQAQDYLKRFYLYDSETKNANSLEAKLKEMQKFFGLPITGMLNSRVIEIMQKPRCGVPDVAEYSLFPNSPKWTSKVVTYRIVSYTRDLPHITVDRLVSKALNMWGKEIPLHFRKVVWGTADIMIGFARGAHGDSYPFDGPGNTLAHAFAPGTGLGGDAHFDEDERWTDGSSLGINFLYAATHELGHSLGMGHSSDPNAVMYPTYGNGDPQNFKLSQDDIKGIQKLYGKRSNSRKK

[7] = biological target: T6, 72 kDa type IV collagenase (Homo sapiens, UniProt P08253)
Target sequence in this assay (P08253 whole entry): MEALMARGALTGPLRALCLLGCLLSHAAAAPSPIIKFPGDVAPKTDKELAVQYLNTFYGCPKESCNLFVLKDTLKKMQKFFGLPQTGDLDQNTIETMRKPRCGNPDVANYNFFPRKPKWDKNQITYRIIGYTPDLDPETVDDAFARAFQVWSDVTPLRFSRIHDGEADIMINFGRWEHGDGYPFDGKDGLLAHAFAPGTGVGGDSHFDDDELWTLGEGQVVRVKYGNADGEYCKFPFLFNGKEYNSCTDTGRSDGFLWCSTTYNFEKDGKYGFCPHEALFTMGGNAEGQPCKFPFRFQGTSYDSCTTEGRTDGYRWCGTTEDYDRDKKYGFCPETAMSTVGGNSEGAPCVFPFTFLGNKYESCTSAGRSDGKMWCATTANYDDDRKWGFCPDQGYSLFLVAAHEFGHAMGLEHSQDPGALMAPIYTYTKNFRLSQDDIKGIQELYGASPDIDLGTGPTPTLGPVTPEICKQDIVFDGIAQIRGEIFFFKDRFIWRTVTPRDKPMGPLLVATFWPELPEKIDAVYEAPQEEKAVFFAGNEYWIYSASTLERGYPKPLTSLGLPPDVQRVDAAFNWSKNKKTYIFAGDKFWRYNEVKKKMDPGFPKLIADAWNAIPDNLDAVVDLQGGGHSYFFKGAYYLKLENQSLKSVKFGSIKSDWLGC

Stromelysin-1 [8] = biological target: T7, Stromelysin-1 (Homo sapiens, UniProt P08254)
Target sequence in this assay (P08254 whole entry): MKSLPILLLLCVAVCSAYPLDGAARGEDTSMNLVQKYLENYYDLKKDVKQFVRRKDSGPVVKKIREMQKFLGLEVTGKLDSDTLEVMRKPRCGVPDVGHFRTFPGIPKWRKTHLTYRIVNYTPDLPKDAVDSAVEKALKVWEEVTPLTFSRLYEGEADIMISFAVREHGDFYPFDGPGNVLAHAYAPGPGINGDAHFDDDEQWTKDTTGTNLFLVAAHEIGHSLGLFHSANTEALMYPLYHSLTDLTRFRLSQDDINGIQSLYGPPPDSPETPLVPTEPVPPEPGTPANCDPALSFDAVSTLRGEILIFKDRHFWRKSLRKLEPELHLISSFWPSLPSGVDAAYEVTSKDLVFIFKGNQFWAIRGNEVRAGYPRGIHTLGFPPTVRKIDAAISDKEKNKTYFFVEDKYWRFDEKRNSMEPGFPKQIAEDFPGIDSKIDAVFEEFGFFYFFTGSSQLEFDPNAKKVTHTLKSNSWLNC

[9] = biological target: A disintegrin and metalloproteinase with thrombospondin motifs 5 (Homo sapiens, UniProt Q9UNA0); experiment: Inhibition of ADAMTS5
A disintegrin and metalloproteinase with thrombospondin motifs 5, sequence (Q9UNA0 whole entry): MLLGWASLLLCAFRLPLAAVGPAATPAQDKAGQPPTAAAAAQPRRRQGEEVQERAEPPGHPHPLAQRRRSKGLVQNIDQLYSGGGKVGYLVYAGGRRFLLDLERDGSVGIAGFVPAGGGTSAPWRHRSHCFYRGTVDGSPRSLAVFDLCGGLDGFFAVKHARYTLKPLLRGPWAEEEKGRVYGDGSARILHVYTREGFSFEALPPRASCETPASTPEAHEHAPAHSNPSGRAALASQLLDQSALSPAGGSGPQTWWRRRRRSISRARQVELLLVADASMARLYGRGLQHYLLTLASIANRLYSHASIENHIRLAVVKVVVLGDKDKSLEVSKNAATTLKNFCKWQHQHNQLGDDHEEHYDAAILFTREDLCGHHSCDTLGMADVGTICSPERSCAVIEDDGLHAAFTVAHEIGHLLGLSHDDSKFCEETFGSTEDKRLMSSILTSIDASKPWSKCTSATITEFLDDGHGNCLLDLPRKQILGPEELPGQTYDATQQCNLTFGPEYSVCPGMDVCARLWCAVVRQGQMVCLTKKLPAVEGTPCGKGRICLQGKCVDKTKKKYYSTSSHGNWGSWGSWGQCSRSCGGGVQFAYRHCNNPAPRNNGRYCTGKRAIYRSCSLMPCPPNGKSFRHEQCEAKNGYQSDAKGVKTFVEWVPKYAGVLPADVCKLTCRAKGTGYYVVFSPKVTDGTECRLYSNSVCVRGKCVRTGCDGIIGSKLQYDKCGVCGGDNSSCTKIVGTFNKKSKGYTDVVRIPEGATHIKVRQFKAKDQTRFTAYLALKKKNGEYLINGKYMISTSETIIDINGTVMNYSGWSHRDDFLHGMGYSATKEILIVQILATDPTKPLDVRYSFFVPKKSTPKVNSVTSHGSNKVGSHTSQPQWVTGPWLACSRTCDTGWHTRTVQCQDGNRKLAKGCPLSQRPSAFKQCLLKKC

[10] = biological target: T4, Interstitial collagenase (Homo sapiens); experiment: Inhibition of MMP1 at 10 uM
[11] = biological target: T2, Matrix metalloproteinase-9; experiment: Inhibition of MMP9 at 10 uM
Collagenase 3 [12] = biological target: T1, Collagenase 3; experiment: Inhibition of MMP13 at 10 uM
Stromelysin-2 [13] = biological target: T8, Stromelysin-2 (Homo sapiens, UniProt P09238); experiment: Inhibition of MMP10 up to 100 uM
[14] = biological target: T4, Interstitial collagenase (Homo sapiens); experiment: Inhibition of MMP1 at 100 uM
[15] = biological target: T6, 72 kDa type IV collagenase; experiment: Inhibition of MMP2 up to 100 uM
Stromelysin-1 [16] = biological target: T7, Stromelysin-1; experiment: Inhibition of MMP3 up to 100 uM
Target sequence in this assay (P08254 100-477 limits assumed): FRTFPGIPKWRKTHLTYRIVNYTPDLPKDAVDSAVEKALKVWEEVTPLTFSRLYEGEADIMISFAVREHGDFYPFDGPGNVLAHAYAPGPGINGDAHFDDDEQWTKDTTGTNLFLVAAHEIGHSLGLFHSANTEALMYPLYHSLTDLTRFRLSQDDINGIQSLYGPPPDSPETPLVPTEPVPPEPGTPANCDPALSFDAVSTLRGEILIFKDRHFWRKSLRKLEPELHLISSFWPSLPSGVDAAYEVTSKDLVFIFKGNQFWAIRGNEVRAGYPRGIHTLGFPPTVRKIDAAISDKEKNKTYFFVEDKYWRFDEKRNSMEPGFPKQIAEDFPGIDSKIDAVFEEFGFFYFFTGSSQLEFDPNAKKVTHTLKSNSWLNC

[17] = biological target: T5, Matrilysin (Homo sapiens); experiment: Inhibition of MMP7 up to 100 uM
Neutrophil collagenase [18] = biological target: T9, Neutrophil collagenase (Homo sapiens, UniProt P22894); experiment: Inhibition of MMP8 up to 100 uM
Target sequence in this assay (P22894 101-467 limits assumed): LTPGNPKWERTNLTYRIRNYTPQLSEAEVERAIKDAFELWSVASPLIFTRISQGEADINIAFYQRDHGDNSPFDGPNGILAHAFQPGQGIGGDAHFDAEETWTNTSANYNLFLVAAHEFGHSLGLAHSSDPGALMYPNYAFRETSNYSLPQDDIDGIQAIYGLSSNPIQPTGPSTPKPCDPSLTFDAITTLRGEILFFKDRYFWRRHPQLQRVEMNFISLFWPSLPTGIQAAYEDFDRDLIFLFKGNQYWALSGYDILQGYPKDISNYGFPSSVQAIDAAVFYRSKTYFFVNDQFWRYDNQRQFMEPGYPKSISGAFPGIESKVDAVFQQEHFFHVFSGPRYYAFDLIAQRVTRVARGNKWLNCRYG

[19] = biological target: T2, Matrix metalloproteinase-9; experiment: Inhibition of MMP9 up to 100 uM
[20] = biological target: T10, Macrophage metalloelastase (Homo sapiens, UniProt P39900); experiment: Inhibition of MMP12 up to 100 uM
Target sequence in this assay (P39900 106-470 limits assumed): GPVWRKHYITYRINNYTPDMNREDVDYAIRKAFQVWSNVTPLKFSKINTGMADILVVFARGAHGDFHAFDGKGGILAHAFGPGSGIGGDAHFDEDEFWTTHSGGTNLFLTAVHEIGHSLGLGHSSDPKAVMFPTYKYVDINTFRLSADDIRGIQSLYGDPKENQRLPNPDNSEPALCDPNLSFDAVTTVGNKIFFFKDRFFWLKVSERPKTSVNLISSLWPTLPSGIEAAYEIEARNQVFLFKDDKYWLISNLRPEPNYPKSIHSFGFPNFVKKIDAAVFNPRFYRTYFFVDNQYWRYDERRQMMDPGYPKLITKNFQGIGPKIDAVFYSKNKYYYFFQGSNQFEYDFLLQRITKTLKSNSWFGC

[21] = biological target: T3, Matrix metalloproteinase-14; experiment: Inhibition of MMP14 up to 100 uM
[22] = biological target: T11, Matrix metalloproteinase-16 (Homo sapiens, UniProt P51512); experiment: Inhibition of MMP16 up to 100 uM
T11 sequence (P51512 whole entry): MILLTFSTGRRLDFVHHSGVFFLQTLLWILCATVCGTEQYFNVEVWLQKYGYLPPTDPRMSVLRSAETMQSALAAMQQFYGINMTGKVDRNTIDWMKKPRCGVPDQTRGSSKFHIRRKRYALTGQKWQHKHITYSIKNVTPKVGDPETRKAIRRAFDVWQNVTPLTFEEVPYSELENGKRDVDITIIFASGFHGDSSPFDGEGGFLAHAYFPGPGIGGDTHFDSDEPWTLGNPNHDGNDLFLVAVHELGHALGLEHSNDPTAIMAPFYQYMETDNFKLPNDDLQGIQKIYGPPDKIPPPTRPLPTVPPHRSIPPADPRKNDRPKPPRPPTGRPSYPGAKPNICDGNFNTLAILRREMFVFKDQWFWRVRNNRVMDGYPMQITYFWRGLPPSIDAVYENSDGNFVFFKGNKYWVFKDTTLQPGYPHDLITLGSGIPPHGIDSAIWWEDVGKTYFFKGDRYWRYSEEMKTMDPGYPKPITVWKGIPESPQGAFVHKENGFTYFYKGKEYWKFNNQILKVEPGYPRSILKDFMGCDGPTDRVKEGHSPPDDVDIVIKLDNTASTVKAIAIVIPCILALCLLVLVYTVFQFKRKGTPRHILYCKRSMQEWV

[23] = biological target: T12, Matrix metalloproteinase-17 (Homo sapiens) (UniProt Q9ULZ9); experiment: Inhibition of MMP17 up to 100 uM
T12 sequence (whole entry): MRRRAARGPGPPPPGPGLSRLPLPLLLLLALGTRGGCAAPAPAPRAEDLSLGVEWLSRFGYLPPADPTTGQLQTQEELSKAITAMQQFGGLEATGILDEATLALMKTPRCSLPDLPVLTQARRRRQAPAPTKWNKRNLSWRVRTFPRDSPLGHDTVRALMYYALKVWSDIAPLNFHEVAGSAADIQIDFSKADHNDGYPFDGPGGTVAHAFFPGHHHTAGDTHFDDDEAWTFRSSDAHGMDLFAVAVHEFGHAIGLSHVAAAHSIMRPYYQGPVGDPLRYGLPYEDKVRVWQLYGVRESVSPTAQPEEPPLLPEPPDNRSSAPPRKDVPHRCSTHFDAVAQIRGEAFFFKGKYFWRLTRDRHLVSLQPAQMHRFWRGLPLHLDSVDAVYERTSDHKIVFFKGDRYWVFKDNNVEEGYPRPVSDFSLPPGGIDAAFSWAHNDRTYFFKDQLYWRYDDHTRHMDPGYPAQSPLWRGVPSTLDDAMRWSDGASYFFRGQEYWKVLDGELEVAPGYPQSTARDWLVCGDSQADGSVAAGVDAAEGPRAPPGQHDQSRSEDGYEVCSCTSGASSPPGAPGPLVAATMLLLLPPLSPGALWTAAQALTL

[24] = biological target: T12, Matrix metalloproteinase-17 (Homo sapiens); experiment: Inhibition of MMP17
Neutrophil collagenase [25] = biological target: T9, Neutrophil collagenase; experiment: Inhibition of MMP8
[26] = biological target: T10, Macrophage metalloelastase; experiment: Inhibition of MMP12
[27] = biological target: T4, Interstitial collagenase (Homo sapiens); experiment: Inhibition of MMP1
[28] = biological target: T5, Matrilysin (Homo sapiens); experiment: Inhibition of MMP7
Collagenase 3 [29] = biological target: T1, Collagenase 3; experiment: Inhibition of MMP13
Stromelysin-3 = Stromelysin-3 (Homo sapiens, UniProt P24347); experiment: Inhibition of MMP11
[30] = biological target: A disintegrin and metalloproteinase with thrombospondin motifs 1 (Homo sapiens, UniProt Q9UHI8); experiment: Inhibition of ADAMTS1
[31] = biological target: T13, Disintegrin and metalloproteinase domain-containing protein 10 (Homo sapiens, UniProt O14672); experiment: Inhibition of ADAM10
T13 sequence (O14672 whole entry): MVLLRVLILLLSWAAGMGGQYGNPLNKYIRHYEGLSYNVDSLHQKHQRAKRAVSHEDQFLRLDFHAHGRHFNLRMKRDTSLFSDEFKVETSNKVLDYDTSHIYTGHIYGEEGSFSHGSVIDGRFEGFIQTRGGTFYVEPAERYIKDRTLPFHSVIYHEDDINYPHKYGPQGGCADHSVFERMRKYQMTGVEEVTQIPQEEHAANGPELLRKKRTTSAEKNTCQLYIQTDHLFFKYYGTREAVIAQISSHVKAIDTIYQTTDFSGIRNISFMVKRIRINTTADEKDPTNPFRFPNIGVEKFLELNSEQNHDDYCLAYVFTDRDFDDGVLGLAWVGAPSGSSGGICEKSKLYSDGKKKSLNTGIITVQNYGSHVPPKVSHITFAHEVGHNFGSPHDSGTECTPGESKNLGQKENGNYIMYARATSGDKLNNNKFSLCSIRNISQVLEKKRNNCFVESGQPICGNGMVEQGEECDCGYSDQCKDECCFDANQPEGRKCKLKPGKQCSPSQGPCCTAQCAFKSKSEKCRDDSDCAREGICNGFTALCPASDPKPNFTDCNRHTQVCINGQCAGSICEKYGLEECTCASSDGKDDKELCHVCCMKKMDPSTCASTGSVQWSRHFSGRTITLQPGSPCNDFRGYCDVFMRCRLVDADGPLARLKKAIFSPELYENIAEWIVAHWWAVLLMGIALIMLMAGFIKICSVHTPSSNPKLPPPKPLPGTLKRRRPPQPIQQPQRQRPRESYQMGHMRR

[32] = biological target: Disintegrin and metalloproteinase domain-containing protein 17 (Sus scrofa, UniProt O77636); experiment: Inhibition of pig TACE
Stromelysin-2 [33] = biological target: T8, Stromelysin-2; experiment: Inhibition of MMP10
Target sequence in this assay (P09238 whole entry): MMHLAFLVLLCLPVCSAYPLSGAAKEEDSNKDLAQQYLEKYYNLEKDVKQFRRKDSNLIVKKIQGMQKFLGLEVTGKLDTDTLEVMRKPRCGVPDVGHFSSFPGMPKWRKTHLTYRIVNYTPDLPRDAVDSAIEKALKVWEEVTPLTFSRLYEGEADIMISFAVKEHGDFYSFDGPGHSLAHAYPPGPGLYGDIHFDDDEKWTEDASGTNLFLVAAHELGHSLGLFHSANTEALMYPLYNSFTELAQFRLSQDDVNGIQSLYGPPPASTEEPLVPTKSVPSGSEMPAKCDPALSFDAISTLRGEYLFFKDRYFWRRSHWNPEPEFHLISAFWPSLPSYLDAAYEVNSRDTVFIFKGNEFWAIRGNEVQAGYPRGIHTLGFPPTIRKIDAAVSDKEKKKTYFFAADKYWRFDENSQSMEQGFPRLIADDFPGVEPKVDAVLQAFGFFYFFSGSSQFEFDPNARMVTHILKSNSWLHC

Interstitial collagenase = biological target: T14, Interstitial collagenase (Homo sapiens, UniProt P03956)
T14 sequence (P03956 whole entry): T4 sequence (whole entry)

[34] = biological target: Matrix metalloproteinase-15 (Homo sapiens, UniProt P51511)
[35] = Inhibition of bovine aggrecanase; set-up: species or system Bos taurus
[36] = Selectivity for bovine aggrecanase over MMP1
[37] = Selectivity for bovine aggrecanase over MMP2
[38] = Selectivity for MMP13 over MMP14
[39] = Selectivity for MMP13 over MMP1
[40] = Selectivity for MMP13 over MMP2
[41] = Selectivity for MMP13 over MMP3
[42] = Selectivity for MMP13 over MMP8
[43] = Selectivity for MMP13 over MMP9
[44] = Selectivity for MMP13 over MMP12
[45] = Selectivity for pig TACE over MMP1
[46] = Selectivity for pig TACE over MMP2
[47] = Selectivity for pig TACE over MMP3
[48] = Selectivity for pig TACE over MMP7
[49] = Selectivity for pig TACE over MMP8
[50] = Selectivity for pig TACE over MMP9
[51] = biological target: T11, Matrix metalloproteinase-16; experiment: Inhibition of MMP16

O=C(NCCCCN1CCOCC1)c1cc2ccccc2o1
Activity (Collagenase 3 [1]): inactive

Cc1cc(COc2ccc(C(=O)NCC3(N4CCN(S(C)(=O)=O)CC4)C(=O)NC(=O)NC3=O)cc2)c2ccccc2n1
inhibition [2]: 11%

O=S(=O)(CCC(S)CS)c1ccc(Oc2ccccc2)cc1 (centres undefined)
Ki [3]: 0.1 µM
Ki [4]: 0.21 µM
Activity [5]: inactive
Activity [6]: inactive
Ki [7]: 0.046 µM
Ki (Stromelysin-1 [8]): 10 µM

O=C(N[C@@H]1CCOC[C@@H]1C(=O)NO)c1ccc(Cn2c(C(F)(F)F)nc3ccccc32)cc1
Ki [9]: 1.9 µM

CC#CCOc1ccc(S(=O)(=O)C2(C(=O)NO)CCN(c3ccc(Cl)cc3)CC2)cc1
inhibition [10]: 52%
inhibition [11]: 52%
inhibition (Collagenase 3 [12]): 56%

O=C(NCc1cccnc1)c1cc(C(=O)NCc2cccnc2)ncn1
Activity (Stromelysin-2 [13]): inactive
Activity [14]: inactive
Activity [15]: inactive
Activity (Stromelysin-1 [16]): inactive
Activity [17]: inactive
Activity (Neutrophil collagenase [18]): inactive
Activity [19]: inactive
Activity [20]: inactive
Activity [21]: inactive
Activity [22]: inactive

Cn1c(=O)n(Cc2ccc(C(=O)O)cc2)c(=O)c2cc(C#CCc3ccccc3)ccc21
Activity [14]: inactive
Activity [15]: inactive
Activity (Stromelysin-1 [16]): inactive
Activity [17]: inactive
Activity (Neutrophil collagenase [18]): inactive
Activity [19]: inactive
Activity [20]: inactive
Activity [21]: inactive
Activity [23]: inactive

COc1ccc(CNC(=O)c2cc3c(=O)n(Cc4ccc(C(=O)O)cc4)cnc3cn2)cc1
Activity [24]: inactive
Activity (Neutrophil collagenase [25]): inactive
Activity [3]: inactive
Activity [4]: inactive
Activity [26]: inactive
Activity [27]: inactive
Activity [28]: inactive

COc1ccccc1SC[C@H](CP(=O)(O)[C@H](Cc1ccccc1)NC(=O)OCc1ccccc1)C(=O)N[C@@H](Cc1c[nH]c2ccccc12)C(N)=O
Ki (Neutrophil collagenase [25]): 0.0389 µM
Ki (Collagenase 3 [29]): 0.0157 µM
Ki [3]: 0.0356 µM
Ki [4]: 0.16 µM
Ki (Stromelysin-3): 0.00023 µM
Ki [7]: 0.03 µM

Cc1cc(COc2ccc(C(=O)N[C@@]3(CC(=O)NO)C[C@@H](C)N[C@@H](C)C3)cc2)c2ccccc2n1
Ki [30]: 7.8 µM
Ki [9]: 1.9 µM
Ki [31]: > 3 µM
Ki [32]: 0.0028 µM
Ki (Neutrophil collagenase [25]): 2.05 µM
Ki (Collagenase 3 [29]): > 5 µM
Ki [3]: > 3 µM
Ki [4]: 0.163 µM
Ki (Stromelysin-2 [33]): 1.65 µM
Ki (Interstitial collagenase): > 5 µM
Ki [7]: > 3 µM
Ki (Stromelysin-1 [8]): 0.762 µM
Ki [34]: 1.7 µM

CS(=O)(=O)N1CCC([C@H](C(=O)NO)[C@@H](Cc2cccc(O)c2)C(=O)N[C@H]2c3ccccc3C[C@H]2O)CC1
IC50 [35]: 0.003 µM
fold change (FC) [36]: > 100
fold change (FC) [37]: > 100

COCCC1(Oc2ccc(Oc3ccc(-c4nc(-c5ccc(C#N)cc5)co4)cc3)cc2)C(=O)NC(=O)NC1=O
fold change (FC) [38]: 540
IC50 (Collagenase 3 [29]): 0.00036 µM
fold change (FC) [39]: 2400
fold change (FC) [40]: 397
fold change (FC) [41]: 17000
fold change (FC) [42]: 394
fold change (FC) [43]: 540
fold change (FC) [44]: 619

O=C1NCCCC[C@@H](C(=O)NCC(=O)N2CCOCC2)NC(=O)[C@H](Cc2ccc(-c3ccccc3C(F)(F)F)cc2)[C@@H](C(=O)NO)CCCO1
Ki (Neutrophil collagenase [25]): 0.2 µM
Ki [3]: > 2 µM
Ki [4]: > 2 µM
Ki [26]: > 2 µM
fold change (FC) [45]: > 100
fold change (FC) [46]: > 100
fold change (FC) [47]: > 100
fold change (FC) [48]: > 100
fold change (FC) [49]: 45
fold change (FC) [50]: > 100
Ki [51]: > 2 µM
Ki (Stromelysin-2 [33]): > 2 µM
Ki (Interstitial collagenase): > 2 µM
Ki [7]: > 2 µM
Ki (Stromelysin-1 [8]): > 2 µM
Ki [34]: > 2 µM
